Data taken from US12338237B2, “Derivatives having 1,2,3,4-tetrahydronaphthalene moiety or pharmaceutically acceptable salt thereof and pharmaceutical compositions comprising the same” (YUHAN CORPORATION, priority 2019, dated 2025).

Assays:
[1] = target: glucosylceramide synthase (GCS) (Homo sapiens (Human), UniProt Q16739); test: Evaluation of inhibitory activities against GCS (enzyme reaction with A549 cell lysate, NBD C6-ceramide, HPLC fluorescence); type: biochemical; conditions: GCS activity in A549 cell lysate, 37° C. for 90 minutes
Chain of glucosylceramide synthase (GCS) (Q16739 whole entry, looked up): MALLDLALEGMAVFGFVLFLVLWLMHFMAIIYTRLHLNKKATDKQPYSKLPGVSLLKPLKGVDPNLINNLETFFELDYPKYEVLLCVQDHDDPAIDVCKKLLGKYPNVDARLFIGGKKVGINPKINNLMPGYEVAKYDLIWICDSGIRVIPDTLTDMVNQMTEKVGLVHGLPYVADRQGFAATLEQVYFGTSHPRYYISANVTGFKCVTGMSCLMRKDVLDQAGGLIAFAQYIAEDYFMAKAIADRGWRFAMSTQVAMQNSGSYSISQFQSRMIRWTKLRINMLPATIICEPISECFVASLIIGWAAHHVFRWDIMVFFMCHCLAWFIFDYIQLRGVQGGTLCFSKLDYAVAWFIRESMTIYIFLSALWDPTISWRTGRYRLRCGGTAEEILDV
Procedure: Ibiglustat, known as a GCS inhibitor, was used as a control.
After the cells attached to the culture dish were washed with phosphate buffered saline (PBS), the cells were scraped off with a cell scraper and then centrifuged (4000 rpm, 3 min, 4° C.) to collect the cells in a 50 ml tube. The cell pellets were suspended in a lysis buffer (50 mM HEPES, pH 7.3, containing 1× the protease/phosphatase inhibitor cocktail), lysed by sonication, and then the lysate was centrifuged (13000 rpm, 10 min, 4° C.). The obtained supernatant was used for the quantitative analysis of proteins. The amount of proteins was measured using the BCA protein assay kit, using bovine serum albumin as a standard.
Enzymatic reactions were initiated by sequentially adding the following reaction materials to a 96 deep-well plate. Thereafter, the enzymatic reactions were performed at 37° C. for 90 minutes.
The enzymatic reactions were stopped by adding 100 μl of chloroform/methanol (2:1, v/v). After vortexing for 15 seconds, each mixture was centrifuged (4000 rpm, 10 min, 18° C.). The lower layer (50 μl) was transferred to a new 96 deep-well plate and dried with a reduced concentrator.
Data analysis was performed by the following equations. % Area (Sample)=Area (GlcCer)/[Area (Cer)+Area (GlcCer)]×100 % GCS activity=[Area(Sample)−Area(ibiglustat)]/[Area(DMSO)−Area(ibiglustat)]×100

GM1 production = test: cells; type: cell-based; conditions: Homo sapiens, Jurkat, 72 h

SMILES	IC50 [1] [nM]	IC50 (GM1 production) [nM]
O=C(NC1CCCc2ccc(-c3cc(F)ccc3F)cc21)O[C@@H]1CN2CCC1CC2 (stereo partly drawn) [Example 67, (S)-quinuclidin-3-yl (7-(2,5-difluorophenyl)-1,2,3,4-tetrahydronaphthalen-1-yl)carbamate]	7.3	38.3
O=C(NC1CCCc2ccc(-c3cc(F)cc(F)c3)cc21)O[C@@H]1CN2CCC1CC2 (stereo partly drawn) [Example 68, (S)-quinuclidin-3-yl (7-(3,5-difluorophenyl)-1,2,3,4-tetrahydronaphthalen-1-yl)carbamate]	63.5	276
O=C(NC1CCCc2ccc(-c3ccc(F)c(F)c3F)cc21)O[C@@H]1CN2CCC1CC2 (stereo partly drawn) [Example 69, (S)-quinuclidin-3-yl (7-(2,3,4-trifluorophenyl)-1,2,3,4-tetrahydronaphthalen-1-yl)carbamate]	40.5	220
O=C(NC1CCCc2ccc(-c3ccc(Cl)c(Cl)c3)cc21)O[C@@H]1CN2CCC1CC2 (stereo partly drawn) [Example 70, (S)-quinuclidin-3-yl (7-(3,4-dichlorophenyl)-1,2,3,4-tetrahydronaphthalen-1-yl)carbamate]	83.9	133
O=C(NC1CCCc2ccc(-c3cc(Cl)ccc3Cl)cc21)O[C@@H]1CN2CCC1CC2 (stereo partly drawn) [Example 71, (S)-quinuclidin-3-yl (7-(2,5-dichlorophenyl)-1,2,3,4-tetrahydronaphthalen-1-yl)carbamate]	22.8	95.4
O=C(NC1CCCc2ccc(-c3ccncc3)cc21)O[C@@H]1CN2CCC1CC2 (stereo partly drawn) [Example 72, (S)-quinuclidin-3-yl (7-(pyridin-4-yl)-1,2,3,4-tetrahydronaphthalen-1-yl)carbamate]	66	116
O=C(NC1CCCc2ccc(-c3cccnc3)cc21)O[C@@H]1CN2CCC1CC2 (stereo partly drawn) [Example 73, (S)-quinuclidin-3-yl (7-(pyridin-3-yl)-1,2,3,4-tetrahydronaphthalen-1-yl)carbamate]	359	587
Cc1ccccc1-c1ccc2c(c1)C(NC(=O)O[C@@H]1CN3CCC1CC3)CCC2 (stereo partly drawn) [Example 74, (S)-quinuclidin-3-yl (7-(o-tolyl)-1,2,3,4-tetrahydronaphthalen-1-yl)carbamate]	14.4	54.4
COc1ccccc1-c1ccc2c(c1)C(NC(=O)O[C@@H]1CN3CCC1CC3)CCC2 (stereo partly drawn) [Example 75, (S)-quinuclidin-3-yl (7-(2-methoxyphenyl)-1,2,3,4-tetrahydronaphthalen-1-yl)carbamate]	22.7	138
CCOc1ccccc1-c1ccc2c(c1)C(NC(=O)O[C@@H]1CN3CCC1CC3)CCC2 (stereo partly drawn) [Example 76, (S)-quinuclidin-3-yl (7-(2-ethoxyphenyl)-1,2,3,4-tetrahydronaphthalen-1-yl)carbamate]	18.7	156
COc1cccc(-c2ccc3c(c2)C(NC(=O)O[C@@H]2CN4CCC2CC4)CCC3)c1 (stereo partly drawn) [Example 77, (S)-quinuclidin-3-yl (7-(3-methoxyphenyl)-1,2,3,4-tetrahydronaphthalen-1-yl)carbamate]	74.9	197
CC(C)Oc1ccccc1-c1ccc2c(c1)C(NC(=O)O[C@@H]1CN3CCC1CC3)CCC2 (stereo partly drawn) [Example 78, (S)-quinuclidin-3-yl (7-(2-isopropoxyphenyl)-1,2,3,4-tetrahydronaphthalen-1-yl)carbamate]	30.1	230
COCCOc1ccc(-c2ccc3c(c2)C(NC(=O)O[C@@H]2CN4CCC2CC4)CCC3)cc1 (stereo partly drawn) [Example 79, (S)-quinuclidin-3-yl (7-(4-(2-methoxyethoxy)phenyl)-1,2,3,4-tetrahydronaphthalen-1-yl)carbamate]	12.9	65.3
COc1ccc(-c2ccc3c(c2)C(NC(=O)O[C@@H]2CN4CCC2CC4)CCC3)cc1 (stereo partly drawn) [Example 80, (S)-quinuclidin-3-yl (7-(4-methoxyphenyl)-1,2,3,4-tetrahydronaphthalen-1-yl)carbamate]	15.4	225
CCOc1ccc(-c2ccc3c(c2)C(NC(=O)O[C@@H]2CN4CCC2CC4)CCC3)cc1 (stereo partly drawn) [Example 81, (S)-quinuclidin-3-yl (7-(4-ethoxyphenyl)-1,2,3,4-tetrahydronaphthalen-1-yl)carbamate]	63.3	410
CCCOc1ccc(-c2ccc3c(c2)C(NC(=O)O[C@@H]2CN4CCC2CC4)CCC3)cc1 (stereo partly drawn) [Example 82, (S)-quinuclidin-3-yl (7-(4-propoxyphenyl)-1,2,3,4-tetrahydronaphthalen-1-yl)carbamate]	30.3	14.4
CC(C)Oc1ccc(-c2ccc3c(c2)C(NC(=O)O[C@@H]2CN4CCC2CC4)CCC3)cc1 (stereo partly drawn) [Example 83, (S)-quinuclidin-3-yl (7-(4-isopropoxyphenyl)-1,2,3,4-tetrahydronaphthalen-1-yl)carbamate]	39.1	386
O=C(NC1CCCc2ccc(-c3ccc4c(c3)OCO4)cc21)O[C@@H]1CN2CCC1CC2 (stereo partly drawn) [Example 84, (S)-quinuclidin-3-yl (7-(benzo[d]dioxol-5-yl)-1,2,3,4-tetrahydronaphthalen-1-yl)carbamate]	75.6	144
Cc1cccc(-c2ccc3c(c2)C(NC(=O)O[C@@H]2CN4CCC2CC4)CCC3)c1 (stereo partly drawn) [Example 85, (S)-quinuclidin-3-yl (7-(m-tolyl)-1,2,3,4-tetrahydronaphthalen-1-yl)carbamate]	74.3	192
CC1(C)CCc2cc(-c3ccc(F)cc3)ccc2C1NC(=O)O[C@@H]1CN2CCC1CC2 (stereo partly drawn) [Example 86, (S)-quinuclidin-3-yl (6-(4-fluorophenyl)-2,2-dimethyl-1,2,3,4-tetrahydronaphthalen-1-yl)carbamate]	2.6	14.2
CC1(C)CCc2cc(-c3ccc(Cl)cc3)ccc2C1NC(=O)O[C@@H]1CN2CCC1CC2 (stereo partly drawn) [Example 87, (S)-quinuclidin-3-yl (6-(4-chlorophenyl)-2,2-dimethyl-1,2,3,4-tetrahydronaphthalen-1-yl)carbamate]	6	19.5
CC1(C)CCc2cc(-c3ccc(C(F)(F)F)cc3)ccc2C1NC(=O)O[C@@H]1CN2CCC1CC2 (stereo partly drawn) [Example 88, (S)-quinuclidin-3-yl (2,2-dimethyl-6-(4-(trifluoromethyl)phenyl)-1,2,3,4-tetrahydronaphthalen-1-yl)carbamate]	3.5	11.3
CC1(C)CCc2cc(-c3ccc(OC(F)(F)F)cc3)ccc2C1NC(=O)O[C@@H]1CN2CCC1CC2 (stereo partly drawn) [Example 89, (S)-quinuclidin-3-yl (2,2-dimethyl-6-(4-(trifluoromethoxy)phenyl)-1,2,3,4-tetrahydronaphthalen-1-yl)carbamate]	2.2	7.79
CC1(C)CCc2cc(-c3cccc(F)c3)ccc2C1NC(=O)O[C@@H]1CN2CCC1CC2 (stereo partly drawn) [Example 90, (S)-quinuclidin-3-yl (6-(3-fluorophenyl)-2,2-dimethyl-1,2,3,4-tetrahydronaphthalen-1-yl)carbamate]	1.01	4.89
CC1(C)CCc2cc(-c3cccc(Cl)c3)ccc2C1NC(=O)O[C@@H]1CN2CCC1CC2 (stereo partly drawn) [Example 91, (S)-quinuclidin-3-yl (6-(3-chlorophenyl)-2,2-dimethyl-1,2,3,4-tetrahydronaphthalen-1-yl)carbamate]	0.81	2.86
